Assay results: patent publication US20080248993A1, “Modified Beta Thymosin Peptides” (REGENERX BIOPHARMACEUTICALS, INC., priority 2005, published 2008)
Like-named read-outs stand apart in the source and are kept apart here.

Target: G-actin
Assay: G-actin binding affinity (ultrafiltration of free and bound peptide, HPLC of the ultrafiltrate)
Procedure: Tests were conducted to determine the G-actin binding affinity of Tβ4^leu as compared to native Tβ4. The experiments were repeated twice and in triplicate, with the results shown below (averages from 3 experiments):
The lower values in the case of Tβ4 are caused by its sulfoxide. Tβ4 plus Tβ4-sulfoxide was determined by amino acid analysis. […] Thus the real concentration of Tβ4 in the tests are lower and the decrease of free Tβ4 is higher when compared to non-oxidized Tβ4. The decrease of free beta-thymosin was measured. G-actin bound Tβ4 and free Tβ4 were separated by ultrafiltration and the concentration of Tβ4 in the ultrafiltrate was measured by HPLC. The procedure utilized is described in Huff et al., FEPS Letters, 414:39-44 (1997).

[1] = First determination, averages from 3 experiments, read-out: Kd, G-actin binding
[2] = Second determination, averages from 3 experiments, read-out: Kd, G-actin binding

| Kd (Example 8, comparison of Tβ4-sulfone with Tβ4 and Tβ4-sulfoxide, read-out: Kd value of the complex with G-actin) | Kd [1] | Kd [2] | G-actin binding, in words (qualitative statement) | Substance |
| --- | --- | --- | --- | --- |
| 1000 nM | 1280 nM | 540 nM | – | Tβ4: Native 43 amino acid, 4.9 kDa polypeptide with methionine at position 6; comparator |
| – | 1360 nM | 990 nM | substantial actin-binding activity | Tβ4^leu: Thymosin β4 with leucine substituted for methionine at position 6 (SDKPDLAEIEKFDKSKLKKTETQEKNPLPSKETIEQEKQAGES; not fully specified; Thymosin beta-4; UniProt P62328 2-44, looked up, variant M6L) |
